In patent US12071411B2, “Inhibitors of HIF-2α and methods of use thereof” (ARCUS BIOSCIENCES, INC., priority 2021, dated 2024):
Like-named read-outs stand apart in the source and are kept apart here.

How the values were obtained:
[1] = target: T1, HIF-2α (Homo sapiens, UniProt Q99814); assay: HIF-2α Luciferase Reporter Assay (serum), HRE-luciferase 786-0 cells in 100% human serum; type: cell-based; conditions: for IC50: 100% human serum, 786-0 reporter cells, overnight incubation, read-out: Serum Potency
In short: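 786-0 cells stably expressing an HRE-luciferase reporter were plated and rested 3 h. They were then treated overnight at 37 °C with compound diluted in 100% human serum. Serum was replaced with Opti-MEM, ONE-Glo luminescence was read, and IC50 came from a 4-parameter logistic fit.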

[2] = target: T1, HIF-2α; assay: HIF-2α Luciferase Reporter Assay (serum free) in HIF-Luc-786-0 cells; type: cell-based; conditions: Opti-MEM, 786-0 reporter cells, 20 hours incubation
In short: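 786-0 cells stably transduced with HIF luciferase reporter, 20,000 cells/well in serum-free Opti-MEM, compounds (50 uM downward, 1% DMSO) 20 h at 37 °C. ONE-Glo luminescence normalized to DMSO and no-cell controls; IC50 from four-parameter fit.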

[3] = ratio of IC50 in 100% serum to IC50 in serum free conditions, approximate

T1 sequence (Q99814 whole entry): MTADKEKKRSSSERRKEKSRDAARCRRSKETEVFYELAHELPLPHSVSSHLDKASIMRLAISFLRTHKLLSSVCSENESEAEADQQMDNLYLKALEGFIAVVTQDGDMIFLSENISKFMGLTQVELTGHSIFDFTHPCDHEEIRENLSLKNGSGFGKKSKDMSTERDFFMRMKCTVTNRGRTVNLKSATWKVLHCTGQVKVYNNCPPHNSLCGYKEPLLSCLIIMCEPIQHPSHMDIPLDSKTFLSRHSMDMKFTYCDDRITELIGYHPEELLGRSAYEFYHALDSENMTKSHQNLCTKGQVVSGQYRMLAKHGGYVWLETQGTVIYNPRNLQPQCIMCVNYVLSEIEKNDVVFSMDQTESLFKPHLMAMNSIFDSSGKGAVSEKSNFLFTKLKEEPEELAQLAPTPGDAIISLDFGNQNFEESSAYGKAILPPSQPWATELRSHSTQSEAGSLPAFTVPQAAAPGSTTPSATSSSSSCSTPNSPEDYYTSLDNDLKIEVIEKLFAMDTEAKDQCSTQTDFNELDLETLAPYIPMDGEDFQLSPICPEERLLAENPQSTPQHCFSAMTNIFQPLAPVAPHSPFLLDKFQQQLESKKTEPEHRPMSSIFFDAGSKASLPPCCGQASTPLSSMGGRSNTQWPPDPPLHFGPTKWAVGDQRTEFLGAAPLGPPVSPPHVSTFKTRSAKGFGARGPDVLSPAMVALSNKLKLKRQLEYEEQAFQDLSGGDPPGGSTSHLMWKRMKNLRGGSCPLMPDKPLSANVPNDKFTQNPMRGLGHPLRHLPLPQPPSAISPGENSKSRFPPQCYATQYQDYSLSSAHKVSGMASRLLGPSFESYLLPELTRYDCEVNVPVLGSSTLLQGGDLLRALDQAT

Row | IC50 [1] [µM] | Serum Shift (approximate) [1, 3] | IC50 [2] [µM] | SMILES | Serum Shift (approximate) [1]
1 | > 1 | 7 | 0.1 to 1 | O[C@H]1c2c(C(F)(F)F)nn([C@@H]3COCC(F)(F)C3)c2CC1(F)F [Example 87, (4S)-1-[(3S)-5,5-difluorooxan-3-yl]-5,5-difluoro-3-(trifluoromethyl)-1H,4H,5H,6H-cyclopenta[c]pyrazol-4-ol] | 
2 | 0.1 to 1 | 7 | < 0.1 | O[C@H]1c2c(C(F)(F)F)nn([C@@H]3C[C@H](F)C[C@H](F)C3)c2CC1(F)F [Example 89, (4S)-1-[(3R,5S)-3,5-difluorocyclohexyl]-5,5-difluoro-3-(trifluoromethyl)-4,6-dihydrocyclopenta[c]pyrazol-4-ol] | 
3 | > 1 | 7 | < 0.1 | O[C@H]1c2c(C(F)(F)F)nn([C@H]3CC[C@H](F)CC3)c2CC1(F)F [Example 96, (4S)-5,5-difluoro-1-(4-fluorocyclohexyl)-3-(trifluoromethyl)-4,6-dihydrocyclopenta[c]pyrazol-4-ol] | 
4 | > 1 | 4 | 0.1 to 1 | C[C@H](C#N)CCn1nc(C(F)(F)F)c2c1CCC(F)(F)[C@H]2O [Example 100, (2S)-4-[(4S)-5,5-difluoro-4-hydroxy-3-(trifluoromethyl)-6,7-dihydro-4H-indazol-1-yl]-2-methylbutanenitrile] | 
5 | > 1 | 11 | < 0.1 | CCO[C@H](CCn1nc(C(F)(F)F)c2c1CC(F)(F)[C@H]2O)C(F)(F)F [Example 101, (4S)-1-[(3R)-3-ethoxy-4,4,4-trifluorobutyl]-5,5-difluoro-3-(trifluoromethyl)-4,6-dihydrocyclopenta[c]pyrazol-4-ol] | 
6 | > 1 | 17 | 0.1 to 1 | O[C@H]1c2c(C(F)(F)F)nn([C@H]3C[C@H](COC(F)F)C3)c2CC1(F)F [Example 102, (4S)-1-[3-(difluoromethoxymethyl)cyclobutyl]-5,5-difluoro-3-(trifluoromethyl)-4,6-dihydrocyclopenta[c]pyrazol-4-ol] | 
7 | > 1 | 7 | > 1 | O[C@H]1c2c(C(F)(F)F)nn([C@H]3C[C@@H](COC(F)F)C3)c2CC1(F)F [Example 103, (4S)-1-[3-(difluoromethoxymethyl)cyclobutyl]-5,5-difluoro-3-(trifluoromethyl)-4,6-dihydrocyclopenta[c]pyrazol-4-ol] | 
8 | > 1 | 20 | 0.1 to 1 | O[C@H]1c2c(C(F)(F)F)nn([C@H]3C[C@H](COC(F)F)C3)c2CCC1(F)F [Example 104, (4S)-1-[3-(difluoromethoxymethyl)cyclobutyl]-5,5-difluoro-3-(trifluoromethyl)-6,7-dihydro-4H-indazol-4-ol] | 
9 | 0.1 to 1 | 1 | 0.1 to 1 | C[C@H](OC(F)F)[C@H]1C[C@H](n2nc(C(F)(F)F)c3c2CC(F)(F)[C@H]3O)C1 [Example 106, (4S)-1-[3-[(1S)-1-(difluoromethoxy)ethyl]cyclobutyl]-5,5-difluoro-3-(trifluoromethyl)-4,6-dihydrocyclopenta[c]pyrazol-4-ol] | 
10 | > 1 | 14 | < 0.1 | O[C@H]1c2c(C(F)(F)F)nn(CC3CCC(F)(F)CC3)c2CC1(F)F [Example 113, (4S)-1-[(4,4-difluorocyclohexyl)methyl]-5,5-difluoro-3-(trifluoromethyl)-1H, 4H, 5H, 6H-cyclopenta[c]pyrazol-4-ol] | 
11 | > 1 | >62 | < 0.1 | O[C@H]1c2c(C(F)(F)F)nn(-c3ccc(C(F)(F)F)cc3)c2CC1(F)F [Example 117, (4S)-5,5-difluoro-3-(trifluoromethyl)-1-[4-(trifluoromethyl)phenyl]-4,6-dihydrocyclopenta[c]pyrazol-4-ol] | 
12 | > 1 | 119 | < 0.1 | O[C@H]1c2c(C(F)(F)F)nn(-c3ccc(Cl)c(Cl)c3)c2CC1(F)F [Example 118, (4S)-1-(3,4-dichlorophenyl)-5,5-difluoro-3-(trifluoromethyl)-4,6-dihydrocyclopenta[c]pyrazol-4-ol] | 
13 | > 1 | 73 | < 0.1 | O[C@H]1c2c(C(F)(F)F)nn(-c3ccc(Cl)c(F)c3)c2CC1(F)F [Example 119, (4S)-1-(4-chloro-3-fluorophenyl)-5,5-difluoro-3-(trifluoromethyl)-4,6-dihydrocyclopenta[c]pyrazol-4-ol] | 
14 | 0.1 to 1 | 4 | < 0.1 | O[C@H]1c2c(C(F)(F)F)nn(CCCOC(F)(F)F)c2CC[C@H]1F [Example 120, (4S,5R)-5-fluoro-1-[3-(trifluoromethoxy)propyl]-3-(trifluoromethyl)-4,5,6,7-tetrahydroindazol-4-ol] | 
15 | > 1 | 6 | < 0.1 | O[C@H]1c2c(C(F)(F)F)nn([C@H]3CCC(F)(F)[C@H](F)C3)c2CC1(F)F [Example 122, (4S)-5,5-difluoro-1-[(1S,3R)-3,4,4-trifluorocyclohexyl]-3-(trifluoromethyl)-4,6-dihydrocyclopenta[c]pyrazol-4-ol] | 
16 | > 1 | 3 | > 1 | O=S1(=O)CC2(CC(n3nc(C(F)(F)F)c4c3CC(F)(F)[C@H]4O)C2)C1 [Example 127, (4S)-1-(2,2-dioxo-2λ^6-thiaspiro[3.3]heptan-6-yl)-5,5-difluoro-3-(trifluoromethyl)-4,6-dihydrocyclopenta[c]pyrazol-4-ol] | 

Row | SMILES | IC50 [1] [µM] | Serum Shift (approximate) [1, 3] | IC50 [2] [µM] | Serum Shift (approximate) [1]
17 | C[C@@H](C#N)CCn1nc(C(F)(F)F)c2c1CCC(F)(F)[C@H]2O [Example 99, (2R)-4-[(4S)-5,5-difluoro-4-hydroxy-3-(trifluoromethyl)-6,7-dihydro-4H-indazol-1-yl]-2-methylbutanenitrile] | 0.1 to 1 | 3 | < 0.1 | 
18 | O[C@H]1c2c(C(F)(F)F)nn(-c3ccc(F)cc3)c2CC1(F)F [Example 114, (4S)-5,5-difluoro-1-(4-fluorophenyl)-3-(trifluoromethyl)-4,6-dihydrocyclopenta[c]pyrazol-4-ol] | > 1 |  | 0.1 to 1 | 27
19 | O[C@H]1c2c(C(F)(F)F)nn(-c3ccc(F)c(F)c3)c2CC1(F)F [Example 115] | > 1 | 45 | 0.1 to 1 | 
20 | O[C@H]1c2c(C(F)(F)F)nn(-c3ccc(Cl)cc3)c2CC1(F)F [Example 116, (4S)-1-(4-chlorophenyl)-5,5-difluoro-3-(trifluoromethyl)-4,6-dihydrocyclopenta[c]pyrazol-4-ol] | > 1 | 73 | < 0.1 | 
21 | O[C@H]1c2c(C(F)(F)F)nn([C@@H]3CCC(F)(F)[C@@H](F)C3)c2CC1(F)F [Example 121, (4S)-5,5-difluoro-1-[(1R,3S)-3,4,4-trifluorocyclohexyl]-3-(trifluoromethyl)-4,6-dihydrocyclopenta[c]pyrazol-4-ol] | > 1 | 11 | < 0.1 | 
